The results in this text go back to patent publication US20060058322A1, “Method of wound healing using A2B adenosine receptor antagonists” (priority 2004, published 2006).

The test system of one test is ICR derived male mice. Description: Wound healing in mouse model (full-thickness punch wound, topical treatment). It is filed as in vivo. The conditions noted are these: mean, n=5; for CT50 (wound half-closure time): linear regression. On the procedure:
Groups of ICR derived male mice (weighing 24±2 g) of 5 each were used. During testing period, the animals were single-housed in each cage. Under hexobarbital (90 mg/kg, IP) anesthesia, the shoulder and back region of each animal was shaved. A sharp punch (ID 12 mm) was applied to remove the skin including panniculus carnosus and adherent tissues. […] Test substances were administered topically immediately following wound injury once daily for a total of 10 consecutive days. The closure of the wound (%) and wound half-closure time (CT50) were determined by linear regression using Graph-Pad Prism™ (Graph Pad Software USA) and unpaired Student's t test was applied for comparison between treated and vehicle groups at each measurement time point on days 3, 5, 7, 9 and 11. Differences are considered of statistical significance at P<0.05 level.
Table 1 presents test data obtained for the compound 3-ethyl-1-propyl-8-(1-{[3-(trifluoromethyl)phenyl]methyl}pyrazol-4-yl)-1,3,7-trihydropurine-2,6-dione using the mouse model discussed above. Table 2 presents test date obtained using 1,3-dipropyl-8-(1-{[6-(trifluoromethyl)(3-pyridyl)]methyl}pyrazol-4-yl)- 1,3,7-trihydropurine-2,6-dione. In each case, the vehicle used for comparison was 1.5% carboxymethylcellulose in phosphate buffered saline at pH 7.4

The subject of a further test is Yorkshire pig. Description: Wound healing in pig model (full thickness excisions, total granulation tissue). Format: in vivo. Here is the method:
Pig skin heals most like human skin and therefore testing on this animal provides an optimal paradigm to study cutaneous repair mechanisms. In this Example, the effect of an A2B antagonist on wound healing was tested in three pigs. PDGF (REGRANEX® (becaplermin) Gel 0.01%, Ortho-McNeil Pharmaceutical, Inc., Raritan, N.J.) was used as a positive control. The vehicle for drug delivery was 1.5% methylcellulose gel (KY gel). Control wounds received the vehicle alone. 3 different dosages of the A2B antagonist 3-ethyl-1-propyl-8-(1-{[3-(trifluoromethyl)phenyl]methyl}pyrazol-4-yl)-1,3,7-trihydropurine-2,6-dione, 1 μg/40 μl, 4 μg/40 μl, and 20 μg/40 μl were tested.
Method: Three Yorkshire pig ([…].) were used. On the day of surgery, a series of full thickness excisions were created alongside the paravertebral region on one side of the pig. Pigs were sacrificed at the end of 10 days and all wounds were removed for histological and immunohistochemical examinations.

Marks after values point to notes of the source that are not given here.

For the molecule `CCCn1c(=O)c2[nH]c(-c3cnn(Cc4cccc(C(F)(F)F)c4)c3)nc2n(CC)c1=O` [3-ethyl-1-propyl-8-(1-{[3-(trifluoromethyl)phenyl]methyl}pyrazol-4-yl)-1,3,7-trihydropurine-2,6-dione], the Percent wound closure is reported as 0% with ICR derived male mice (0.5 μg/mouse topical once daily, Day 1); 43.2* % in the test on ICR derived male mice (0.5 μg/mouse topical once daily, Day 2); 51.2* % with ICR derived male mice (0.5 μg/mouse topical once daily, Day 3); 56.0* % in the test with ICR derived male mice (0.5 μg/mouse topical once daily, Day 4); 58.8* % in the test on ICR derived male mice (0.5 μg/mouse topical once daily, Day 5); 64.3* % with ICR derived male mice (0.5 μg/mouse topical once daily, Day 6). In addition, the Percent wound closure is on record as 72.5* % in the test with ICR derived male mice (0.5 μg/mouse topical once daily, Day 7); 78.2* % in the test with ICR derived male mice (0.5 μg/mouse topical once daily, Day 8); 82.5* % with ICR derived male mice (0.5 μg/mouse topical once daily, Day 9); 83.1* % in the test with ICR derived male mice (0.5 μg/mouse topical once daily, Day 10); 87.1* % in the test with ICR derived male mice (0.5 μg/mouse topical once daily, Day 11); 0% with ICR derived male mice (2 μg/mouse topical once daily, Day 1). The Percent wound closure is on record as 35.6* % in the test with ICR derived male mice (2 μg/mouse topical once daily, Day 2); 46.5* % with ICR derived male mice (2 μg/mouse topical once daily, Day 3); 57.4* % in the test on ICR derived male mice (2 μg/mouse topical once daily, Day 4); 62.4% in the test with ICR derived male mice (2 μg/mouse topical once daily, Day 5); 68.3* % with ICR derived male mice (2 μg/mouse topical once daily, Day 6); 73.3* % in the test on ICR derived male mice (2 μg/mouse topical once daily, Day 7). The Percent wound closure with ICR derived male mice (2 μg/mouse topical once daily, Day 8) is given as 78.8* %; in the test with ICR derived male mice (2 μg/mouse topical once daily, Day 9), 82.2* %; in the test with ICR derived male mice (2 μg/mouse topical once daily, Day 10), 89.2* %; in the test with ICR derived male mice (2 μg/mouse topical once daily, Day 11), 91.6* %. Also, the “CT50 (wound half-closure time)” value in the test on ICR derived male mice (0.5 μg/mouse topical once daily) is 4.3* DAYS; in the test on ICR derived male mice (2 μg/mouse topical once daily), 4.4* DAYS. Besides, in the test with Yorkshire pig (1 μg/40 μl versus 20 μg/40 μl topical, p=0.047), the “Total granulation tissue, lowest dose versus highest dose” value is reported as “statistical difference”. The “Total granulation tissue, highest dose versus placebo formulation” value in the test with Yorkshire pig (20 μg/40 μl topical, p=0.035) was “statistical difference”. For the same molecule, the “Effect on total granulation tissue” value in the test on Yorkshire pig (topical 1, 4 and 20 μg/40 μl in 1.5% methylcellulose gel, 10 days, FIG. 1) is on record as “stimulated the total granulation tissue in a dose-dependent fashion”.
On to `CCCn1c(=O)c2[nH]c(-c3cnn(Cc4ccc(C(F)(F)F)nc4)c3)nc2n(CCC)c1=O` [1,3-dipropyl-8-(1-{[6-(trifluoromethyl)(3-pyridyl)]methyl}pyrazol-4-yl)-1,3,7-trihydropurine-2,6-dione], for which the Percent wound closure in the test with ICR derived male mice (Table 2, 0.5 μg/mouse topical once daily, Day 3) is listed as 41.9* %; in the test with ICR derived male mice (Table 2, 0.5 μg/mouse topical once daily, Day 5) it was 53.5* %; in the test with ICR derived male mice (Table 2, 0.5 μg/mouse topical once daily, Day 7), 65.8* %; in the test with ICR derived male mice (Table 2, 0.5 μg/mouse topical once daily, Day 9), 77.1* %; in the test with ICR derived male mice (Table 2, 0.5 μg/mouse topical once daily, Day 11) it was 85.3* %. Moreover, the “CT50 (wound half-closure time)” value in the test with ICR derived male mice (Table 2, 0.5 μg/mouse topical once daily) is listed as 5.5* DAYS.
For the molecule PDGF, in the test on Yorkshire pig (REGRANEX (becaplermin) Gel 0.01%, p=0.034), the “Total granulation tissue, positive control versus placebo formulation” value was “statistical difference”.
